Reference: ChEMBL document CHEMBL1201862, “PubChem BioAssay data set” (2004)
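Test compounds were applied to cells in 96-well plates for 48 hours at 5 doses. Here, GI50 denotes the concentration required for 50% inhibition of growth.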 Activity calls are given as the source filed them. Rule as the data show it: active = GI50 up to about 1.1 µM and inactive = higher.

Columns and labels:
Assay in all cases: NCI tumour cell line growth inhibition, 48 h
786-0 = test system: 786-0
A498 = test system: A498
A549 = test system: A549
ACHN = test system: ACHN
CAKI-1 = test system: CAKI-1
CCRF-CEM = test system: CCRF-CEM
COLO 205 = test system: COLO 205
DU-145 = test system: DU-145
EKVX = test system: EKVX
HCC 2998 = test system: HCC 2998
HCT-116 = test system: HCT-116
HCT-15 = test system: HCT-15
HL-60 = test system: HL-60
HOP-62 = test system: HOP-62
HOP-92 = test system: HOP-92
HT-29 = test system: HT-29
Hs-578T = test system: Hs-578T
IGROV-1 = test system: IGROV-1
K562 = test system: K562
KM12 = test system: KM12
LOX IMVI = test system: LOX IMVI
M14 = test system: M14
MDA-MB-231 = test system: MDA-MB-231
MDA-MB-435 = test system: MDA-MB-435
MDA-N = test system: MDA-N
MOLT-4 = test system: MOLT-4
Malme-3M = test system: Malme-3M
NCI-H226 = test system: NCI-H226
NCI-H23 = test system: NCI-H23
NCI-H460 = test system: NCI-H460
NCI-H522 = test system: NCI-H522
NCI/ADR-RES = test system: NCI/ADR-RES
OVCAR-3 = test system: OVCAR-3
OVCAR-4 = test system: OVCAR-4
OVCAR-5 = test system: OVCAR-5
OVCAR-8 = test system: OVCAR-8
RPMI-8226 = test system: RPMI-8226
RXF 393 = test system: RXF 393
SF-268 = test system: SF-268
SF-539 = test system: SF-539
SK-MEL-28 = test system: SK-MEL-28
SK-MEL-2 = test system: SK-MEL-2
SK-MEL-5 = test system: SK-MEL-5
SN12C = test system: SN12C
SNB-19 = test system: SNB-19
SNB-75 = test system: SNB-75
SR = test system: SR
SW-620 = test system: SW-620
TK-10 = test system: TK-10
U-251 = test system: U-251
UACC-257 = test system: UACC-257
UACC-62 = test system: UACC-62
UO-31 = test system: UO-31
MCF7 = test system: MCF7
PC-3 = test system: PC-3
SF-295 = test system: SF-295
SK-OV-3 = test system: SK-OV-3
T47D = test system: T47D

With `O=c1[nH]n(Cc2ccccc2Cl)c2ccc([N+](=O)[O-])cc12` the GI50 (786-0) was 46.6 µM (inactive), the GI50 (A498) was 22.3 µM (inactive) and the GI50 (A549) was 37.8 µM (inactive). The GI50 (ACHN) was 33.3 µM (inactive), the GI50 (CAKI-1) was > 100 µM (inactive) and the GI50 (CCRF-CEM) was 45.2 µM (inactive). The GI50 (COLO 205) was > 100 µM (inactive), the GI50 (DU-145) was > 100 µM (inactive) and the GI50 (EKVX) was 58.7 µM (inactive). The GI50 (HCC 2998) was 50.1 µM (inactive), the GI50 (HCT-116) was 41.1 µM (inactive) and the GI50 (HCT-15) was 58.6 µM. For the same molecule, the GI50 (HL-60) was 31.6 µM (inactive), the GI50 (HOP-62) was 75.9 µM (inactive) and the GI50 (HOP-92) was 18.5 µM (inactive). The GI50 (HT-29) was 72.9 µM (inactive), the GI50 (Hs-578T) was 48.9 µM (inactive) and the GI50 (IGROV-1) was 61.9 µM (inactive). For the same molecule, the GI50 (K562) was 29 µM (inactive), the GI50 (KM12) was 63.5 µM (inactive) and the GI50 (LOX IMVI) was > 100 µM (inactive). The GI50 (M14) was > 100 µM (inactive), the GI50 (MDA-MB-231) was 39.4 µM (inactive) and the GI50 (MDA-MB-435) was 3.98 µM (inactive). For the same molecule, the GI50 (MDA-N) was 47 µM (inactive), the GI50 (MOLT-4) was 35.8 µM (inactive) and the GI50 (Malme-3M) was 47.3 µM (inactive). The GI50 (NCI-H226) was 86.9 µM (inactive), the GI50 (NCI-H23) was 49.8 µM (inactive) and the GI50 (NCI-H460) was 35.6 µM (inactive). The GI50 (NCI-H522) was 36.1 µM (inactive), the GI50 (NCI/ADR-RES) was 28.1 µM (inactive) and the GI50 (OVCAR-3) was 35.9 µM (inactive). For the same molecule, the GI50 (OVCAR-4) was 78.9 µM (inactive), the GI50 (OVCAR-5) was > 100 µM (inactive) and the GI50 (OVCAR-8) was 42.3 µM (inactive). The GI50 (RPMI-8226) was 45.1 µM (inactive), the GI50 (RXF 393) was 23.3 µM (inactive) and the GI50 (SF-268) was 49.9 µM (inactive). For the same molecule, the GI50 (SF-539) was 54.2 µM (inactive), the GI50 (SK-MEL-28) was 55.8 µM (inactive) and the GI50 (SK-MEL-2) was 34.7 µM (inactive). For the same molecule, the GI50 (SK-MEL-5) was 12.6 µM (inactive), the GI50 (SN12C) was 54 µM (inactive) and the GI50 (SNB-19) was 80 µM (inactive). For the same molecule, the GI50 (SNB-75) was 47.2 µM (inactive), the GI50 (SR) was 29.2 µM (inactive) and the GI50 (SW-620) was 53.7 µM (inactive). The GI50 (TK-10) was 55.6 µM (inactive), the GI50 (U-251) was 75.9 µM (inactive) and the GI50 (UACC-257) was > 100 µM (inactive). For the same molecule, the GI50 (UACC-62) was 43.4 µM (inactive) and the GI50 (UO-31) was 34.3 µM (inactive).
`Cc1ccccc1NC(=O)Cc1csc(N/N=C2\NC(=O)/C(=C/c3cccc([N+](=O)[O-])c3)S2)n1` was tested, and the GI50 (786-0) was 45.2 µM (inactive), the GI50 (A549) was 16.7 µM (inactive) and the GI50 (ACHN) was 15.6 µM (inactive). The GI50 (CAKI-1) was 19.7 µM (inactive), the GI50 (COLO 205) was 34.2 µM (inactive) and the GI50 (DU-145) was 36.1 µM (inactive). The GI50 (EKVX) was 13.5 µM (inactive), the GI50 (HCC 2998) was 14.3 µM (inactive) and the GI50 (HCT-116) was 36.7 µM (inactive). The GI50 (HCT-15) was 15.8 µM, the GI50 (HL-60) was 17.8 µM (inactive) and the GI50 (HOP-62) was 22.9 µM (inactive). The GI50 (HOP-92) was 15.8 µM (inactive), the GI50 (HT-29) was 34.7 µM (inactive) and the GI50 (IGROV-1) was 14.1 µM (inactive). For the same molecule, the GI50 (KM12) was 16.6 µM (inactive), the GI50 (LOX IMVI) was 30.3 µM (inactive) and the GI50 (M14) was 17 µM (inactive). The GI50 (MCF7) was 41.8 µM (inactive), the GI50 (MDA-MB-231) was 21.7 µM (inactive) and the GI50 (MDA-MB-435) was 19.8 µM (inactive). The GI50 (MDA-N) was 30.5 µM (inactive), the GI50 (MOLT-4) was 23.9 µM (inactive) and the GI50 (NCI-H226) was 17.8 µM (inactive). For the same molecule, the GI50 (NCI-H23) was 19.1 µM (inactive), the GI50 (NCI-H460) was 15.6 µM (inactive) and the GI50 (NCI/ADR-RES) was 31.3 µM (inactive). The GI50 (OVCAR-3) was 19.7 µM (inactive), the GI50 (OVCAR-4) was 20.6 µM (inactive) and the GI50 (OVCAR-5) was 22.6 µM (inactive). The GI50 (OVCAR-8) was 31.8 µM (inactive), the GI50 (PC-3) was 16.6 µM (inactive) and the GI50 (SF-295) was 18.1 µM (inactive). The GI50 (SF-539) was 17.1 µM (inactive), the GI50 (SK-MEL-28) was 19.1 µM (inactive) and the GI50 (SK-MEL-2) was 26.4 µM (inactive). The GI50 (SK-MEL-5) was 23.9 µM (inactive), the GI50 (SK-OV-3) was 53.1 µM (inactive) and the GI50 (SN12C) was 36.6 µM (inactive). For the same molecule, the GI50 (SNB-19) was 16.1 µM (inactive), the GI50 (SNB-75) was 13.1 µM (inactive) and the GI50 (SW-620) was 40.6 µM (inactive). For the same molecule, the GI50 (T47D) was 17.1 µM (inactive), the GI50 (TK-10) was 18.9 µM (inactive) and the GI50 (U-251) was 21.5 µM (inactive). The GI50 (UACC-257) was 20.3 µM (inactive) and the GI50 (UO-31) was 13.1 µM (inactive).
